# According to patent publication US10292949B2, “Pharmaceutical composition comprising rimeporide for treating diseases associated with insulin resistance and β-cell dysfunction” (Merck Patent GmbH, priority 2008, dated 2019):
# Assays:
# Type in all cases: in vivo, rat
# [1] = system: Obese, insulin resistant ZF (fa/fa) rats; test: Pharmacological Study Report I: deuterated glucose disposal test (2H-GDT); conditions: 4 weeks, Compound A 150 mg/kg gavage twice daily
# Procedure: Obese, insulin resistant ZF (fa/fa) rats, which are treated from the age of 8-12 weeks, were used as IR model. Rats were housed with a 12-h light/dark cycle and free access to food and water unless otherwise noted. Studies were approved by the Institutional Animal Care and Use Committee. There were a total of 18 animals in the study (8 week-old males, provided by Charles River). Animals were randomized into 3 groups (vehicle group, Compound A group, Compound B group, n=6 per group) based on random glucose level at the beginning of the study: • Group 1: ZF rats (fa/fa) (n=6), compound A (150 mg/kg via gavage) • Group 2: ZF rats (fa/fa) (n=6), compound B (40 mg/kg/day as admixture to the chow) • Group 3: ZF rats (fa/fa) (n=6), vehicle treatment (control chow, vehicle gavage)
# Group 1 and 3 animals were treated with compound A or vehicle (water) for 4 weeks (from age 8-12 weeks) via oral gavage, twice daily. Chow containing compound B was fed to Group 2 ad lib. Group 1 and Group 3 were fed with chow without compound B ad lib.
# Rats underwent a 4 hour fast. […] At t=0, the blood glucose concentrations were determined with a glucometer, and a blood sample was obtained for determination of base line insulin and H2O^18 dilution. […]
# One hundred micro liter aliquots of plasma samples inside the cape of an inverted vial were placed in a heating blocked filled with glass beads at 70° C. overnight and the water distillate inside the vial was collected. The deuterium and oxygen-18 isotope ratios of the blood of plasma samples were determined using a Thermo Finnigan High Temperature Conversion/Elemental Analyzer coupled with a Thermo Finnigan MAT 253 IRMS via a Conflo-III Interface. […] The deuterium isotope abundance is first calculated in δ 2H values relative to the international VSMOW standard, and then transformed to APE by using a calibration curve of standards with known enrichments. The ^2H2O enrichment was calculated for rats at 30 min after the glucose load. ^2H2O enrichment was converted to mmoles by multiplying enrichment by the TBW pool size and dividing by 20 (MW ^2H2O). […]
# [2] = Pharmacological Study Report II: body weight and food intake; conditions: for Average food consumption, Week 1 / Average food consumption, Week 2 / Average food consumption, Week 3 / Average food consumption, Week 4: fa/fa rats, average +/- SD
# Procedure: (§1) Thirty-six obese Zucker fa/fa and six lean Zucker fa/? male rats obtained from Charles River, were housed under normal vivarium conditions on a 12 hour light/dark cycle. The rats were kept two to a cage with food and water available ad lib, except during the weekly, 4 hour fasts. Water continued to be available during these fasts.
# (§2) Compound A corresponds to Cariporide. Compound B corresponds to 2-Methyl-4,5-di-(methylsulfonyl)-benzoyl-guanidine hydrochloride hydrate. Compounds A and B were supplied in powder form by Merck Serono. Drugs were incorporated into a pelleted diet (LabDiet, 5001) by Research Diets, Inc (New Brunswick, N.J.) at concentrations of 0.44 g/kg or 0.88 g/kg of diet to yield approximate doses of 40 or 80 mg/kg. The concentration was calculated based on the assumption that a 300 g rat would eat about 30 g/d of chow. The same chow, but without drug, was fed to rats of both the lean and fa/fa control group animals.
# (§3) One week prior to the start of the study, all rats were weighed. After a 4 hour fast, a blood sample was obtained for the determination of blood glucose, insulin, and glycosylated hemoglobin levels (HbA1c). Animals were then sorted on the basis of these parameters into the groups listed below. Rats were eight weeks of age at the onset of treatment.
# (§4) • 1. ZF rats (fa/fa) (n=6) chow without drug • 2. ZF rats (fa/fa) (n=6) compound A (40 mg/kg/day) • 3. ZF rats (fa/fa) (n=6) compound A (80 mg/kg/day) • 4. ZF rats (fa/fa) (n=6) compound B (40 mg/kg/day) • 5. ZF rats (fa/fa) (n=6) compound B (80 mg/kg/day) • 6. lean Zucker rats (fa/?) (n=6) chow without drug Dosing Regime
# (§5) Treatment appropriate chow was continuously available for 4 weeks except during scheduled 4 h fasts conducted once per week.
# individual body weights were determined once per week. Average food intake per cage was also determined once per week and the individual rat consumption was calculated by dividing the cage average by 2 (rats housed 2/cage).
# obese Zucker fa/fa rats = test: Pharmacological Study Report II: HbA1c levels; conditions: Mean ± SD; for Base line HbA1c: baseline; for Change in HbA1c: change over the 4 week treatment period; for Week 4 HbA1c: week 4 of treatment
# Procedure: as §1, §2, §3, §4, §5
# HbA1c level were determined using a DCA 2000 analyzer (Bayer Healthcare LLC, Elkhart Ind.) prior to beginning the study and again at the end of the 4th week treatment period.
smiles,measurement,setting,value
"CC(C)c1ccc(C(=O)NC(=N)N)cc1S(C)(=O)=O [Compound A, Cariporide]","Insulin sensitivity (% 2H2O recovery per insulin AUC), post-treatment compared to pre-treatment",[1],no significant change
same,"Pancreatic compensation (% 2H2O recovery), before vs after treatment within group","[1]; Compound B 40 mg/kg/day in chow, 90 minute % D2O recovery",exhibited lower pancreatic compensation post-treatment
same,Average weekly food intake vs chow fed fa/fa controls,"[2]; Zucker fa/fa rats, 4 weeks, 40 or 80 mg/kg in chow",did not differ significantly
same,"Average food consumption, Week 1",[2]; 40 mg/kg in chow,32.2 +/− 3.5 grams
same,"Average food consumption, Week 2",[2]; 40 mg/kg in chow,33.1 +/− 2.6 grams
same,"Average food consumption, Week 3",[2]; 40 mg/kg in chow,33.9 +/− 2.4 grams
same,"Average food consumption, Week 4",[2]; 40 mg/kg in chow,34.9 +/− 2.7 grams
same,"Average food consumption, Week 1",[2]; 80 mg/kg in chow,34.3 +/− 2.5 grams
same,"Average food consumption, Week 2",[2]; 80 mg/kg in chow,32.8 +/− 4.3 grams
same,"Average food consumption, Week 3",[2]; 80 mg/kg in chow,32.3 +/− 4.5 grams
same,"Average food consumption, Week 4",[2]; 80 mg/kg in chow,30.8 +/− 5.6 grams
same,Base line HbA1c,obese Zucker fa/fa rats; 40 mg/kg group,4.0 ± 0.5%
same,Base line HbA1c,obese Zucker fa/fa rats; 80 mg/kg group,3.9 ± 0.4%
same,Change in HbA1c,obese Zucker fa/fa rats; 40 mg/kg,0.4 ± 0.6%
same,Change in HbA1c,obese Zucker fa/fa rats; 80 mg/kg,0.4 ± 0.9%
same,Week 4 HbA1c,obese Zucker fa/fa rats; 40 mg/kg in chow,4.4 ± 0.2%
same,Week 4 HbA1c,obese Zucker fa/fa rats; 80 mg/kg in chow,4.4 ± 0.52%
